Results: PubChem BioAssay AID256 (DTP/NCI, 2004)
Values joined by “and” are separate entries in the source; they are usually repeats but may differ in a detail not shown here. Equal values may be shown once. Inconclusive results and toxic doses are left out. How the source made its calls: active means survival T/C of 150% or more; inactive means T/C below 125% in these data.

Test system: CD2F1 mice, L1210 leukemia ip, survival T/C
Experiment: NCI In Vivo Anticancer Drug Screen. Data for tumor model L1210 Leukemia (intraperitoneal) in CD2F1 (CDF1) mice
Conditions: higher = longer survival
Method in brief: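 Each value reflects a quotient of treated over vehicle control outcomes in mice with a transplanted tumor.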

[1] = endpoint: mean survival time, dose: 100.0 mg/kg/injection, schedule: Q04DX003 (ip), vehicle: saline with Tween-80
[2] = endpoint: mean survival time, dose: 100.0 mg/kg/injection, schedule: Q01DX009 (ip), vehicle: saline with Tween-80
[3] = endpoint: mean survival time, dose: 200.0 mg/kg/injection, schedule: Q01DX009 (ip), vehicle: saline with Tween-80
[4] = endpoint: mean survival time, dose: 400.0 mg/kg/injection, schedule: Q01DX009 (ip), vehicle: saline with Tween-80
[5] = endpoint: mean survival time, dose: 25.0 mg/kg/injection, schedule: Q01DX009 (ip), vehicle: saline with Tween-80
[6] = endpoint: mean survival time, dose: 50.0 mg/kg/injection, schedule: Q01DX009 (ip), vehicle: saline with Tween-80

Measured: T/C

CCNCCNc1ccc(NCCNCC)c2c1C(=O)c1ccccc1C2=O
inactive: endpoint: mean survival time, dose: 2.0 mg/kg/injection, schedule: Q01DX009 (ip), vehicle: acid diluted with saline 122 % of control | endpoint: mean survival time, dose: 4.0 mg/kg/injection, schedule: Q01DX009 (ip), vehicle: acid diluted with saline 122 % of control and 123 % of control

c1ccc2c(c1)CC1Nc3ccccc3C21 (configuration not stated)
inactive: endpoint: mean survival time, dose: 100.0 mg/kg/injection, schedule: Q01DX001 (ip), vehicle: saline with Tween-80 97 % of control | endpoint: mean survival time, dose: 200.0 mg/kg/injection, schedule: Q01DX001 (ip), vehicle: saline with Tween-80 97 % of control | endpoint: mean survival time, dose: 400.0 mg/kg/injection, schedule: Q01DX001 (ip), vehicle: saline with Tween-80 96 % of control

COC(=O)C1C2CCC(C2)C1C(=O)OC (configuration not stated)
inactive: [1] 97 % of control | endpoint: mean survival time, dose: 200.0 mg/kg/injection, schedule: Q04DX003 (ip), vehicle: saline with Tween-80 101 % of control | endpoint: mean survival time, dose: 400.0 mg/kg/injection, schedule: Q04DX003 (ip), vehicle: saline with Tween-80 93 % of control

Nc1nc(N)nc(Cl)n1
inactive: endpoint: mean survival time, dose: 25.0 mg/kg/injection, schedule: Q04DX002 (ip), vehicle: saline with Tween-80 90 % of control | endpoint: mean survival time, dose: 50.0 mg/kg/injection, schedule: Q04DX002 (ip), vehicle: saline with Tween-80 101 % of control | endpoint: mean survival time, dose: 100.0 mg/kg/injection, schedule: Q04DX002 (ip), vehicle: saline with Tween-80 90 % of control

Cc1cc(C)n(C(=S)[S-])n1.Cc1cc(C)n(C(=S)[S-])n1.[Pt+2]
inactive: endpoint: mean survival time, dose: 25.0 mg/kg/injection, schedule: Q04DX003 (ip), vehicle: saline with Tween-80 90 % of control | endpoint: mean survival time, dose: 50.0 mg/kg/injection, schedule: Q04DX003 (ip), vehicle: saline with Tween-80 90 % of control | [1] 105 % of control

CS(=O)(=O)SC(F)(F)F
inactive: endpoint: mean survival time, dose: 5.0 mg/kg/injection, schedule: Q01DX001 (ip), vehicle: saline 103 % of control

CCOCc1ccc(C(=O)O)cc1
inactive: [2] 96 % of control | [3] 101 % of control | [4] 101 % of control

COc1ccc(/C=c2\[nH]c(=O)/c(=C/c3ccc(OC)c(OC)c3)[nH]c2=O)cc1OC
inactive: [5] 95 % of control | [6] 103 % of control | [2] 90 % of control

Clc1ncc2cnccn12
inactive: [2] 101 % of control

O=S(O)C(=NC1CCCCC1)NC1CCCCC1
inactive: [2] 90 % of control | [3] 90 % of control | [4] 105 % of control

CCN(CC)c1cc(C(=O)O)cc(N(CC)CC)n1
inactive: endpoint: median survival time, dose: 6.25 mg/kg/injection, schedule: Q01DX009 (ip), vehicle: other 104 % of control | endpoint: median survival time, dose: 12.5 mg/kg/injection, schedule: Q01DX009 (ip), vehicle: other 107 % of control | endpoint: median survival time, dose: 50.0 mg/kg/injection, schedule: Q01DX005 (ip), vehicle: acid diluted with saline 103 % of control | endpoint: median survival time, dose: 50.0 mg/kg/injection, schedule: Q01DX009 (ip), vehicle: other 108 % of control | endpoint: median survival time, dose: 100.0 mg/kg/injection, schedule: Q01DX005 (ip), vehicle: acid diluted with saline 94 % of control | endpoint: median survival time, dose: 100.0 mg/kg/injection, schedule: Q01DX009 (ip), vehicle: other 121 % of control

CCCCCCCCCCCCCCCCCCNC(=S)NCCCCCCCCCCCCCCCCCC
inactive: endpoint: mean survival time, dose: 12.5 mg/kg/injection, schedule: Q01DX009 (ip), vehicle: saline with Tween-80 97 % of control | [5] 98 % of control | [6] 90 % of control and 98 % of control | [2] 90 % of control

Cc1c2c(ccc3ccccc32)c[n+]2ccccc12
inactive: endpoint: mean survival time, dose: 1.56 mg/kg/injection, schedule: Q01DX009 (ip), vehicle: saline 98 % of control and 100 % of control | endpoint: mean survival time, dose: 3.12 mg/kg/injection, schedule: Q01DX009 (ip), vehicle: saline 103 % of control and 106 % of control | endpoint: mean survival time, dose: 6.25 mg/kg/injection, schedule: Q01DX009 (ip), vehicle: saline 104 % of control and 105 % of control | endpoint: mean survival time, dose: 12.5 mg/kg/injection, schedule: Q01DX009 (ip), vehicle: saline 103 % of control and 108 % of control

CCOC(=O)C(C)C(=O)O (configuration not stated)
inactive: endpoint: mean survival time, dose: 50.0 mg/kg/injection, schedule: Q01DX009 (ip), vehicle: saline 97 % of control | endpoint: mean survival time, dose: 100.0 mg/kg/injection, schedule: Q01DX009 (ip), vehicle: saline 98 % of control | endpoint: mean survival time, dose: 100.0 mg/kg/injection, schedule: Q04DX003 (ip), vehicle: saline 98 % of control | endpoint: mean survival time, dose: 200.0 mg/kg/injection, schedule: Q01DX009 (ip), vehicle: saline 98 % of control | endpoint: mean survival time, dose: 200.0 mg/kg/injection, schedule: Q04DX003 (ip), vehicle: saline 96 % of control

CCOC(=O)c1c(C)cc(C)[nH]c1=O
inactive: endpoint: mean survival time, dose: 100.0 mg/kg/injection, schedule: Q04DX003 (ip), vehicle: saline + alcohol 102 % of control | endpoint: mean survival time, dose: 200.0 mg/kg/injection, schedule: Q04DX003 (ip), vehicle: saline + alcohol 107 % of control | endpoint: mean survival time, dose: 400.0 mg/kg/injection, schedule: Q04DX003 (ip), vehicle: saline + alcohol 113 % of control
